Measurements as given in BindingDB's records for patent US20250213571 (Alumis, 2025).
pKd: −log10 of the molar value.

Target: T1, Non-receptor tyrosine-protein kinase TYK2 [556-888] (Homo sapiens, UniProt P29597)
T1 construct: 556-888
Assay: TYK2 JH2 Domain Binding Assay
Procedure: Binding constants for the compounds described herein against the JH2 domain were determined by the following protocol for a KINOMEscan assay (DiscoveRx). A fusion protein of a partial length construct of human TYK2 (JH2domain-pseudokinase) (amino acids G556 to D888 based on reference sequence NP_003322.3) and the DNA binding domain of NFkB was expressed in transiently transfected HEK293 cells. From these HEK 293 cells, extracts were prepared in M-PER extraction buffer (Pierce) in the presence of Protease Inhibitor Cocktail Complete (Roche) and Phosphatase Inhibitor Cocktail Set II (Merck) per manufacturers' instructions. The TYK2 (JH2domain-pseudokinase) fusion protein was labeled with a chimeric double-stranded DNA tag containing the NFkB binding site fused to an amplicon for qPCR readout, which was added directly to the expression extract (the final concentration of DNA-tag in the binding reaction is 0.1 nM).

T1 sequence (P29597 556-888): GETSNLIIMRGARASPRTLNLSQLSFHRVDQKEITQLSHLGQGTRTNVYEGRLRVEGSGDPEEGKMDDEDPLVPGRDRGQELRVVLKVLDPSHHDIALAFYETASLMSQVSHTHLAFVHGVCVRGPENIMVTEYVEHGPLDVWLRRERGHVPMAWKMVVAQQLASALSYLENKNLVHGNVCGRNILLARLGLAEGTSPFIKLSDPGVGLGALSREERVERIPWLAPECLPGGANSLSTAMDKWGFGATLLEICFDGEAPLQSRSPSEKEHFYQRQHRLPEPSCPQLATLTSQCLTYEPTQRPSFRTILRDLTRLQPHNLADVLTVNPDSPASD

In the case of `CNc1cc2nn3c(cnc13)C(=O)N[C@H](C)COCc1cc(c3c(c1)ncn3C)N2` [US20250213571, Compound 8], the pKd was greater than 8.00.
